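Test compounds were applied to cells in 96-well plates for 48 hours at 5 doses. TGI is the concentration that stops growth completely.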
Experiments:
Assay in all cases: growth of human tumour cells (NCI), 48 h
SN12C renal = tested on: SN12C renal
UACC-257 melanoma = tested on: UACC-257 melanoma
EKVX NSCLC = tested on: EKVX NSCLC
A498 renal = tested on: A498 renal
T-47D breast = tested on: T-47D breast
A549 NSCLC = tested on: A549 NSCLC
NCI-H23 lung = tested on: NCI-H23 lung
LOX IMVI melanoma = tested on: LOX IMVI melanoma
RPMI-8226 leukemia = tested on: RPMI-8226 leukemia
NCI-H226 lung = tested on: NCI-H226 lung

Measured: TGI

Clc1ccc(C=NC23CC4CC(CC(C4)C2)C3)c(Cl)c1
> 10 µM: all assays above

Cc1ccsc1/C=N/Nc1cnccn1
> 100 µM: all assays above

COc1ccc(C(=O)NCCN(C)C)c2nc3ccccc3cc12
6.71 µM: RPMI-8226 leukemia
2.2 µM: NCI-H23 lung
12.6 µM: T-47D breast
4.02 µM: UACC-257 melanoma
3.76 µM: A498 renal
3.28 µM: SN12C renal
2.4 µM: A549 NSCLC
1.74 µM: LOX IMVI melanoma
3.26 µM: NCI-H226 lung
6.68 µM: EKVX NSCLC

CC(C)(C)OC(=O)NC(CSSCC(NC(=O)OC(C)(C)C)C(=O)O)C(=O)O (stereo not given)
> 100 µM: all assays above

CCCCOCCOC1=C(Cl)C(=O)c2c(O)ccc(O)c2C1=O
4.64 µM: A549 NSCLC
7.59 µM: EKVX NSCLC
4.33 µM: A498 renal
0.806 µM: RPMI-8226 leukemia
0.946 µM: LOX IMVI melanoma
4.07 µM: T-47D breast
4.63 µM: NCI-H226 lung
1.59 µM: SN12C renal
1.02 µM: NCI-H23 lung
1.15 µM: UACC-257 melanoma

O=C(O)C(O)C(O)C(O)C(O)CO (stereo not given)
> 100 µM: all assays above

OCCCc1ccc2c(c1)[C@H](CO)[C@@H](c1ccc(O)cc1)O2
> 100 µM: all assays above

Cc1ccc(/C=C2/N=C(N/N=C\C(O)C(O)C(O)C(O)CO)NC2=O)cc1 (stereo not given)
> 100 µM: all assays above

CN(C)Cc1cc(C(=O)/C=C/c2ccc([N+](=O)[O-])cc2)cc(CN(C)C)c1O
37.3 µM: EKVX NSCLC
47.5 µM: NCI-H23 lung
20.2 µM: SN12C renal
6.98 µM: RPMI-8226 leukemia
32 µM: T-47D breast
23.9 µM: A498 renal
33.6 µM: UACC-257 melanoma
5.5 µM: LOX IMVI melanoma
89 µM: A549 NSCLC
19.2 µM: NCI-H226 lung

CCOc1c(OC)cc(-c2nc3n(n2)C(=O)C(CC)S3)cc1OC (stereo not given)
> 10 µM: all assays above

CC1(C)C=CC(=O)C(O)C(C)(C)C1=O (stereo not given)
> 100 µM: all assays above

O=C(c1ccccc1)c1ccc2c(c1)NC(=O)c1ccccc1SSc1ccccc1C(=O)N2
> 100 µM: all assays above

Cc1nc2ccccc2c(-n2cccn2)c1CCn1cccn1
> 100 µM: all assays above

CSc1nc2c(c(N(C)C)n1)C(O)n1c(nc3ccccc31)S2 (stereo not given)
> 85.3 µM: T-47D breast
75.5 µM: LOX IMVI melanoma
> 100 µM: all other assays above

CCOC(=O)/C(C(C)=O)=C(\OC(C)=O)c1ccncc1C(=O)O
> 100 µM: all assays above

Cc1ccc2c(c1)c1ccc3c(c1n2C)C(=O)C=CC3=O
> 7.51 µM: SN12C renal
5.08 µM: T-47D breast
> 7.07 µM: EKVX NSCLC
5.82 µM: NCI-H23 lung
4.2 µM: RPMI-8226 leukemia
7.9 µM: UACC-257 melanoma
> 8.82 µM: A498 renal
> 10 µM: all other assays above

CC12c3c4ccc(C=O)c3Oc3ccc(C=O)c(c31)Oc1ccc(C=O)c(c12)O4
> 25 µM: all assays above

COc1ccc(-c2nc3ccccc3c(=S)n2OC(C)=O)cc1
> 25 µM: all assays above
